Data published in patent publication US9567339B2, “Primary carboxamides as BTK inhibitors” (AbbVie Inc., priority 2013, dated 2017).

What follows are molecules tested against BTK, recombinant human catalytic domain (aa 393-659) (Homo sapiens (Human), UniProt Q06187) (assay: In vitro BTK kinase activity measured by time-resolved fluorescence resonance energy transfer (trFRET)). Conditions: read-out: Btk IC50.
Assay type: biochemical

BTK, recombinant human catalytic domain (aa 393-659), sequence (Q06187 393-659): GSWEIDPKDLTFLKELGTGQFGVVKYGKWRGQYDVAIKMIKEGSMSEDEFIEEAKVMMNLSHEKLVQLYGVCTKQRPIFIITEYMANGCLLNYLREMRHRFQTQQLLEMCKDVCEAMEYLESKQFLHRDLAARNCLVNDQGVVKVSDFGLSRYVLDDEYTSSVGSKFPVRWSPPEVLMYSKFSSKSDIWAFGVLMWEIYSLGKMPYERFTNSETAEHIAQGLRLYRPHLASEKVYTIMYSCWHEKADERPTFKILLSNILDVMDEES

| SMILES | IC50 |
| --- | --- |
| Cc1c(NC(=O)/C=C/CN(C)C)cccc1-c1ccc(C(N)=O)c2[nH]c(C3=CCN(S(C)(=O)=O)CC3)cc12 [D.7.2] | < 100 nM |
| C=CC(=O)N1CC(N(C)c2ccc(C(N)=O)c3[nH]c(-c4cnn(C)c4)cc23)C1 [E.9.14] | < 100 nM |
| CCOC(=O)/C=C/C(=O)Nc1cccc(-c2ccc(C(N)=O)c3[nH]c(C4=CCN(S(C)(=O)=O)CC4)cc23)c1C [D.7.20] | < 100 nM |
| C=CC(=O)N1CC(N(C)c2ccc(C(N)=O)c3[nH]c(-c4ccnn4C)cc23)C1 [E.9.16] | < 100 nM |
| CCC(=O)N1CC[C@@H](c2ccc(C(N)=O)c3[nH]c(C)cc23)C1 [E.10.2] | 100 to 1000 nM |
| C=CC(=O)Nc1cc(OC)cc(-c2ccc(C(N)=O)c3[nH]ccc23)c1 [E.1.28] | 100 to 1000 nM |
| C=CC(=O)Nc1cc(-c2ccc(C(N)=O)c3[nH]ccc23)ccc1OCc1ccccc1 [E.1.12] | 1000 to 10000 nM |
| Cc1c(NC(=O)/C=C\Cl)cccc1-c1ccc(C(N)=O)c2[nH]c(C3=CCN(S(C)(=O)=O)CC3)cc12 [D.7.17] | < 100 nM |
| Cc1c(NC(=O)/C=C/CNC2CC2)cccc1-c1ccc(C(N)=O)c2[nH]ccc12 [J.1.4] | 100 to 1000 nM |
| CC(=O)NCc1ccccc1-c1cc2c(-c3cccc(NC(=O)c4nccs4)c3C)ccc(C(N)=O)c2[nH]1 [E.4.3] | 100 to 1000 nM |
| Cc1c(NC(=O)CF)cccc1-c1ccc(C(N)=O)c2[nH]c(C3=CCN(S(C)(=O)=O)CC3)cc12 [D.7.22] | < 100 nM |
| Cc1c(NC(=O)C2CCOCC2)cccc1-c1ccc(C(N)=O)c2[nH]c(C3=CCN(S(C)(=O)=O)CC3)cc12 [D.7.33] | < 100 nM |
| COC1CCCC(C(=O)Nc2cccc(-c3ccc(C(N)=O)c4[nH]c(C5=CCN(S(C)(=O)=O)CC5)cc34)c2C)C1 (centres unmarked) [D.7.34] | < 100 nM |
| COCCNC/C=C/C(=O)Nc1cccc(-c2ccc(C(N)=O)c3[nH]ccc23)c1C [J.1.3] | 1000 to 10000 nM |
| C=CC(=O)N1CC(N(C)c2ccc(C(N)=O)c3[nH]c(-c4ccc5c(c4)COCC5)cc23)C1 [E.9.3] | < 100 nM |
| Cc1c(NC(=O)COc2cccnc2)cccc1-c1ccc(C(N)=O)c2[nH]c(C3=CCN(S(C)(=O)=O)CC3)cc12 [D.7.14] | < 100 nM |

More lines, now with the values ahead:

| IC50 | SMILES |
| --- | --- |
| 1000 to 10000 nM | CC(C)(C)c1cc(C(=O)N[C@@H]2CCCN(c3ccc(C(N)=O)c4[nH]ccc34)C2)no1 [O.1.10*] |
| < 100 nM | C=CC(=O)Nc1cccc(-c2ncc(C(N)=O)c3[nH]ccc23)c1 [E.1.10] |
| 100 to 1000 nM | Cc1c(NC(=O)/C=C/CN(C)C)cccc1-c1cnc(C(N)=O)c2[nH]ccc12 [J.2.1] |
| 100 to 1000 nM | Cc1cc2c(N(C)C3CN(C#N)C3)ccc(C(N)=O)c2[nH]1 [J.3.1] |
| < 100 nM | CC(C)(C)c1ccc(C(=O)N[C@@H]2CCCN(c3ccc(C(N)=O)c4[nH]c(-c5cccnc5)cc34)C2)cc1 [O.1.26] |
| 100 to 1000 nM | C=CC(=O)N1CC([C@H](C)c2ncc(C(N)=O)c3[nH]ccc23)C1 [E.9.29] |
| < 100 nM | C=CC(=O)N1CCC[C@H](c2ccc(C(N)=O)c3[nH]c(C)cc23)C1 [E.9.8] |
| < 100 nM | C=CC(=O)Nc1ccc(Cl)c(-c2ccc(C(N)=O)c3[nH]ccc23)c1 [E.1.24] |
| < 100 nM | Cc1c(-c2ccc(C(N)=O)c3[nH]c(-c4cnn(CCO)c4)cc23)cccc1-n1cnc2ccccc2c1=O [M.1.2] |
| < 100 nM | CCOC(=O)N1CC=C(c2cc3c(-c4cccc(-n5cnc6ccccc6c5=O)c4C)ccc(C(N)=O)c3[nH]2)CC1 [E.6.2] |
| < 100 nM | C=CC(=O)N1CC(N(C)c2ccc(C(N)=O)c3[nH]c(-c4ccc(CN5CCOCC5)cn4)cc23)C1 [E.9.13] |
| < 100 nM | Cc1c(-c2ccc(C(N)=O)c3[nH]c(C4=CCN(C)CC4)cc23)cccc1-n1cnc2ccccc2c1=O [H.1.1] |
| < 100 nM | C=CC(=O)N1CC(N(C)c2ccc(C(N)=O)c3[nH]c(-c4ccc5c(c4)NCCO5)cc23)C1 [E.9.15] |
| 1000 to 10000 nM | C=CC(=O)Nc1ccccc1-c1ccc(C(N)=O)c2[nH]ccc12 [E.1.2] |
| 100 to 1000 nM | C=CC(=O)N1CCC[C@H](c2cnc(C(N)=O)c3[nH]ccc23)C1 [E.9.52] |
| < 100 nM | Cc1c(NC(=O)C(C)C)cccc1-c1ccc(C(N)=O)c2[nH]c(C3=CCN(S(C)(=O)=O)CC3)cc12 [D.7.40] |
| < 100 nM | C=CC(=O)N1CC(N(C)c2ccc(C(N)=O)c3[nH]c(C4=CCC(S(C)(=O)=O)CC4)cc23)C1 (centres unmarked) [E.9.6] |
| 1000 to 10000 nM | C=CC(=O)N1CCOC[C@H](c2ccc(C(N)=O)c3[nH]ccc23)C1 [E.9.39] |
| < 100 nM | CCC(Cl)C(=O)Nc1cccc(-c2ccc(C(N)=O)c3[nH]c(C4=CCN(S(C)(=O)=O)CC4)cc23)c1C (centres unmarked) [D.7.26] |
| 1000 to 10000 nM | NC(=O)c1ccc(N2CCC[C@@H](NC(=O)c3ccc(C(F)(F)F)cc3)C2)c2cc[nH]c12 [O.1.8*] |
| 1000 to 10000 nM | NC(=O)c1ccc(N2CCC[C@@H](NC(=O)Nc3nccs3)C2)c2cc[nH]c12 [O.1.7*] |
| 100 to 1000 nM | NC(=O)c1ccc(N2CCC[C@@H](n3cnc4ccccc4c3=O)C2)c2cc(-c3cccnc3)[nH]c12 [O.1.27*] |
| < 100 nM | C=CC(=O)N1CCO[C@H](c2ccc(C(N)=O)c3[nH]c(-c4cnn(C)c4)cc23)C1 [E.9.23] |
| < 100 nM | CS(=O)(=O)N1CC=C(c2cc3c(N4CCC[C@@H](N5CCn6ccnc6C5=O)C4)ccc(C(N)=O)c3[nH]2)CC1 [O.1.3*] |
| 100 to 1000 nM | Cn1cc(-c2cc3c(N4CCC[C@@H](NC(=O)c5ccc(OC(F)(F)F)cc5)C4)ccc(C(N)=O)c3[nH]2)cn1 [O.1.24*] |
| < 100 nM | C=CC(=O)N1CC(N(C)c2ccc(C(N)=O)c3[nH]c(C4CC4)cc23)C1 [E.9.2] |

Same assay, conditions: trFRET, 0.001 mM ATP, biotin-TYR1 peptide substrate; read-out: Btk IC50

| SMILES | IC50 |
| --- | --- |
| Cc1ccc2c(c1)C(=O)N(c1cccc(-c3ccc(C(N)=O)c4[nH]c(-c5cccnc5)cc34)c1C)C2 [A.7.5] | < 100 nM |
| CNC(=O)/C=C/C(=O)Nc1cccc(-c2ccc(C(N)=O)c3[nH]ccc23)c1 [D.4.1] | 1000 to 10000 nM |
| C=CC(=O)Nc1cccc(-c2ccc(C(N)=O)c3[nH]c(-c4ccc(C)nc4)cc23)c1C [A.1.24] | < 100 nM |
| CCCC(=O)NCc1ccccc1-c1cc2c(-c3cccc(NC(=O)c4nccs4)c3C)ccc(C(N)=O)c2[nH]1 [D.1.8] | 1000 to 10000 nM |
| C=CC(=O)Nc1cc(NCc2nccs2)cc(-c2ccc(C(N)=O)c3[nH]c(C4=CCN(S(C)(=O)=O)CC4)cc23)c1 [Example 6, 4-(3-Acrylamido-5-(thiazol-2-ylmethylamino)phenyl)-2-(1-(methylsulfonyl)-1,2,3,6-tetrahydropyridin-4-yl)-1H-indole-7-carboxamide] | < 100 nM |
| C=C(CN1CCOCC1)C(=O)Nc1cccc(-c2ccc(C(N)=O)c3[nH]ccc23)c1 [D.6.2] | < 100 nM |
| Cc1c(NC(=O)c2ccc(C(F)F)cc2)cccc1-c1ccc(C(N)=O)c2[nH]c(-c3cncnc3)cc12 [A.13.3] | 100 to 1000 nM |
| C=CC(=O)Nc1cccc(-c2ccc(C(N)=O)c3[nH]c(-c4ccccc4OC)cc23)c1C [A.1.43] | < 100 nM |
| C=CC(=O)Nc1cccc(-c2ccc(C(N)=O)c3[nH]c(-c4ccc(C#N)cc4)cc23)c1C [A.1.42] | < 100 nM |
| Cc1c(NC(=O)c2nccs2)cccc1-c1ccc(C(N)=O)c2[nH]c(-c3ccccc3CNC(=O)CCN3CCCCC3)cc12 [D.1.5] | 1000 to 10000 nM |
| C=CC(=O)N[C@@H]1CC[C@H](c2ccc(C(N)=O)c3[nH]ccc23)C1 (relative stereo) [Example 10, 4-(cis-3-Acrylamidocyclopentyl)-1H-indole-7-carboxamide] | < 100 nM |
| C=CC(=O)Nc1cccc(-c2ccc(C(N)=O)c3[nH]c(-c4cccc(F)c4)cc23)c1C [A.1.26] | < 100 nM |
| Cc1c(-c2ccc(C(N)=O)c3[nH]c(C4=CCOCC4)cc23)cccc1-n1cnc2ccc(F)cc2c1=O [A.11.2] | < 100 nM |
| C/C=C/C(=O)Nc1c[nH]c2c(C(N)=O)ccc(-c3cccc(NC(=O)c4nccs4)c3C)c12 [D.3.3] | 1000 to 10000 nM |
| Cc1c(NC(=O)c2nccs2)cccc1-c1ccc(C(N)=O)c2[nH]c(-c3cccnc3)cc12 [A.7.8] | < 100 nM |
| Cc1c(-c2ccc(C(N)=O)c3[nH]c(-c4ccc(F)cc4)cc23)cccc1-n1cnc2ccccc2c1=O [A.12.1] | < 100 nM |
| Cc1c(NC(=O)c2nccs2)cccc1-c1ccc(C(N)=O)c2[nH]cc(NC(=O)CC#N)c12 [D.3.1] | 1000 to 10000 nM |

The next lines start with the values.

| IC50 | SMILES |
| --- | --- |
| 1000 to 10000 nM | C=C(C)C(=O)Nc1c[nH]c2c(C(N)=O)ccc(-c3cccc(NC(=O)c4nccs4)c3C)c12 [D.3.4] |
| 1000 to 10000 nM | Cc1c(NC(=O)c2ccc(C(C)(C)C)cc2)cccc1-c1ccc(C(N)=O)c2[nH]ccc12 [A.5.6] |
| < 100 nM | C=CC(=O)Nc1cccc(-c2ccc(C(N)=O)c3[nH]c(CCO)cc23)c1 [Example 23, 4-(3-Acrylamidophenyl)-2-(2-hydroxyethyl)-1H-indole-7-carboxamide] |
| 100 to 1000 nM | Cc1c(NC(=O)/C=C/CN(C)C)cccc1-c1ccc(C(N)=O)c2[nH]ccc12 [J.1, (E)-4-(3-(4-(Dimethylamino)but-2-enamido)-2-methylphenyl)-1H-indole-7-carboxamide] |
| 1000 to 10000 nM | C=CC(=O)Nc1ccc(C(N)=O)c2[nH]ccc12 [Example 5, 4-Acrylamido-1H-indole-7-carboxamide] |
| 100 to 1000 nM | NC(=O)c1ccc(-c2ccncc2)c2cc(-c3ccc(F)cc3)[nH]c12 [A.9.4] |
| < 100 nM | CCNC(=O)/C=C\C(=O)Nc1cccc(-c2ccc(C(N)=O)c3[nH]ccc23)c1C [D.8.15] |
| < 100 nM | Cc1c(-c2ccc(C(N)=O)c3[nH]c(-c4cccnc4)cc23)cccc1N1Cc2ccccc2C1=O [A.7.4] |
| 100 to 1000 nM | C#CC(=O)NCc1ccccc1-c1cc2c(-c3cccc(NC(=O)c4nccs4)c3C)ccc(C(N)=O)c2[nH]1 [D.1.11] |
| 100 to 1000 nM | Cc1ccc(-c2cc3c(-c4cccnc4)ccc(C(N)=O)c3[nH]2)cc1 [A.8.3] |
| 1000 to 10000 nM | NC(=O)c1ccc(-c2ccccc2NC(=O)Cn2sc3ccccc3c2=O)c2cc[nH]c12 [D.2.1] |
| < 100 nM | C=CC(=O)Nc1cccc(-c2ccc(C(N)=O)c3[nH]c(-c4ccccc4F)cc23)c1C [A.1.29] |
| < 100 nM | CC(=O)N1CC=C(c2cc3c(-c4cccc(-n5cnc6ccc(F)cc6c5=O)c4C)ccc(C(N)=O)c3[nH]2)CC1 [A.3.2] |
| 100 to 1000 nM | Cc1ccc(-c2cc3c(-c4ccncc4)ccc(C(N)=O)c3[nH]2)cc1 [A.8.4] |
| < 100 nM | Cc1c(NC(=O)c2cc3c(s2)CCCC3)cccc1-c1ccc(C(N)=O)c2[nH]c(-c3cccnc3)cc12 [A.7.3] |
